Test results published in PubChem BioAssay AID1963833 (Molecular Pharmacology Branch, DTP, NCI, 2024).

System: 883617-216-R-J1-PDC complex spheroid viability
Experiment: Anticancer human tumor 883617-216-R-J1-PDC patient-derived bladder carcinoma cell line growth inhibition [POLQ]
Conditions: for IC50: curve of first compound; for viability, T/C: stronger effect = lower value
Method in brief: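 PDC + HUVEC + MSC complex spheroids; POLQ inhibitors ± partner drugs; top conc. at/near clinical Cmax, else 10 microM (SN-38 1 microM), half-log dilutions; 37 degrees C, 5% CO2.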

[1] = second compound 0.0316 µM, first compound 0.0316 µM
[2] = second compound 0.0316 µM, first compound 0.1 µM
[3] = second compound 0.0316 µM, first compound 0.316 µM
[4] = second compound 0.0316 µM, first compound 1 µM
[5] = second compound 0.0316 µM, first compound 3.16 µM
[6] = second compound 0.0316 µM, first compound 10 µM
[7] = second compound 0.1 µM, first compound 0.0316 µM
[8] = second compound 0.1 µM, first compound 0.1 µM
[9] = second compound 0.1 µM, first compound 0.316 µM
[10] = second compound 0.1 µM, first compound 1 µM
[11] = second compound 0.1 µM, first compound 3.16 µM
[12] = second compound 0.1 µM, first compound 10 µM
[13] = second compound 0.316 µM, first compound 0.0316 µM
[14] = second compound 0.316 µM, first compound 0.1 µM
[15] = second compound 0.316 µM, first compound 0.316 µM
[16] = second compound 0.316 µM, first compound 1 µM
[17] = second compound 0.316 µM, first compound 3.16 µM
[18] = second compound 0.316 µM, first compound 10 µM
[19] = second compound 1 µM, first compound 0.0316 µM
[20] = second compound 1 µM, first compound 0.1 µM
[21] = second compound 1 µM, first compound 0.316 µM
[22] = second compound 1 µM, first compound 1 µM
[23] = second compound 1 µM, first compound 3.16 µM
[24] = second compound 1 µM, first compound 10 µM
[25] = second compound 3.16 µM, first compound 0.0316 µM
[26] = second compound 3.16 µM, first compound 0.1 µM
[27] = second compound 3.16 µM, first compound 0.316 µM
[28] = second compound 3.16 µM, first compound 1 µM
[29] = second compound 3.16 µM, first compound 3.16 µM
[30] = second compound 3.16 µM, first compound 10 µM
[31] = second compound 10 µM, first compound 0.0316 µM
[32] = second compound 10 µM, first compound 0.1 µM
[33] = second compound 10 µM, first compound 0.316 µM
[34] = second compound 10 µM, first compound 1 µM
[35] = second compound 10 µM, first compound 3.16 µM
[36] = second compound 10 µM, first compound 10 µM
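Further: spheroids exposed to compounds for seven days before readout.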
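Wherever viability, T/C is given: 100% = DMSO vehicle control viability.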

SMILES: O=C(c1cc(Cc2n[nH]c(=O)c3ccccc23)ccc1F)N1CCN(C(=O)C2CC2)CC1 + Nc1ccc(C#CCN(C(=O)Cc2ncc(C(F)(F)F)cc2C(F)(F)F)c2ccc(F)cc2)nn1
- IC50 (second compound 0.0316 µM): > 10 µM
- IC50 (second compound 0.1 µM): > 10 µM
- IC50 (second compound 0.316 µM): > 10 µM
- IC50 (second compound 1 µM): > 10 µM
- IC50 (second compound 3.16 µM): > 10 µM
- IC50 (second compound 10 µM): > 10 µM
- viability, T/C [1]: 90%
- viability, T/C [2]: 105%
- viability, T/C [3]: 83.3%
- viability, T/C [4]: 89.8%
- viability, T/C [5]: 90.3%
- viability, T/C [6]: 67.8%
- viability, T/C [7]: 92.8%
- viability, T/C [8]: 109%
- viability, T/C [9]: 92.7%
- viability, T/C [10]: 97.5%
- viability, T/C [11]: 95.4%
- viability, T/C [12]: 86.4%
- viability, T/C [13]: 97.9%
- viability, T/C [14]: 109%
- viability, T/C [15]: 100%
- viability, T/C [16]: 89.1%
- viability, T/C [17]: 75.7%
- viability, T/C [18]: 87.9%
- viability, T/C [19]: 100%
- viability, T/C [20]: 86.8%
- viability, T/C [21]: 99.3%
- viability, T/C [22]: 104%
- viability, T/C [23]: 84.8%
- viability, T/C [24]: 95.3%
- viability, T/C [25]: 90%
- viability, T/C [26]: 99.5%
- viability, T/C [27]: 92.2%
- viability, T/C [28]: 91.3%
- viability, T/C [29]: 81.2%
- viability, T/C [30]: 73%
- viability, T/C [31]: 97%
- viability, T/C [32]: 103%
- viability, T/C [33]: 100%
- viability, T/C [34]: 93.1%
- viability, T/C [35]: 94.2%
- viability, T/C [36]: 73%

SMILES: CC1COCCN1c1cc(-c2ccnn2C)c2ccnc(-c3ccn[nH]3)c2n1 (stereo unspecified) + COC1C(OC(N)=O)C(O)C(Oc2ccc3c(O)c(NC(=O)c4ccc(O)c(CC=C(C)C)c4)c(=O)oc3c2C)OC1(C)C
- IC50 (second compound 0.0316 µM): 0.297 µM
- IC50 (second compound 0.1 µM): 0.285 µM
- IC50 (second compound 0.316 µM): 0.124 µM
- IC50 (second compound 1 µM): 0.154 µM
- IC50 (second compound 3.16 µM): 0.156 µM
- IC50 (second compound 10 µM): 0.139 µM
- viability, T/C [1]: 89.7%
- viability, T/C [2]: 63.8%
- viability, T/C [3]: 53.1%
- viability, T/C [4]: 37%
- viability, T/C [5]: 28.1%
- viability, T/C [6]: 30.7%
- viability, T/C [7]: 83.2%
- viability, T/C [8]: 62.9%
- viability, T/C [9]: 49.5%
- viability, T/C [10]: 37.7%
- viability, T/C [11]: 31.7%
- viability, T/C [12]: 27%
- viability, T/C [13]: 91.2%
- viability, T/C [14]: 51%
- viability, T/C [15]: 38.6%
- viability, T/C [16]: 40.8%
- viability, T/C [17]: 33.1%
- viability, T/C [18]: 27.3%
- viability, T/C [19]: 82.7%
- viability, T/C [20]: 54.3%
- viability, T/C [21]: 41.7%
- viability, T/C [22]: 32.5%
- viability, T/C [23]: 26.5%
- viability, T/C [24]: 24.4%
- viability, T/C [25]: 86.3%
- viability, T/C [26]: 53.3%
- viability, T/C [27]: 44%
- viability, T/C [28]: 34.8%
- viability, T/C [29]: 29.6%
- viability, T/C [30]: 29.5%
- viability, T/C [31]: 91.1%
- viability, T/C [32]: 54.4%
- viability, T/C [33]: 39.2%
- viability, T/C [34]: 32.2%
- viability, T/C [35]: 29.8%
- viability, T/C [36]: 32.3%

SMILES: O=C(c1cc(Cc2n[nH]c(=O)c3ccccc23)ccc1F)N1CCN(C(=O)C2CC2)CC1 + COC1C(OC(N)=O)C(O)C(Oc2ccc3c(O)c(NC(=O)c4ccc(O)c(CC=C(C)C)c4)c(=O)oc3c2C)OC1(C)C
- IC50 (second compound 0.0316 µM): > 10 µM
- IC50 (second compound 0.1 µM): > 10 µM
- IC50 (second compound 0.316 µM): > 10 µM
- IC50 (second compound 1 µM): > 10 µM
- IC50 (second compound 3.16 µM): > 10 µM
- IC50 (second compound 10 µM): > 10 µM
- viability, T/C [1]: 106%
- viability, T/C [2]: 98%
- viability, T/C [3]: 103%
- viability, T/C [4]: 99.1%
- viability, T/C [5]: 72.5%
- viability, T/C [6]: 62.9%
- viability, T/C [7]: 91%
- viability, T/C [8]: 88.5%
- viability, T/C [9]: 88.9%
- viability, T/C [10]: 97.4%
- viability, T/C [11]: 81.6%
- viability, T/C [12]: 63%
- viability, T/C [13]: 96.1%
- viability, T/C [14]: 87.6%
- viability, T/C [15]: 100%
- viability, T/C [16]: 92.3%
- viability, T/C [17]: 78%
- viability, T/C [18]: 70.3%
- viability, T/C [19]: 97.4%
- viability, T/C [20]: 85.5%
- viability, T/C [21]: 109%
- viability, T/C [22]: 91.9%
- viability, T/C [23]: 96.1%
- viability, T/C [24]: 63.5%
- viability, T/C [25]: 91.2%
- viability, T/C [26]: 87.8%
- viability, T/C [27]: 95.8%
- viability, T/C [28]: 89%
- viability, T/C [29]: 79.1%
- viability, T/C [30]: 65.3%
- viability, T/C [31]: 94%
- viability, T/C [32]: 91.6%
- viability, T/C [33]: 94.8%
- viability, T/C [34]: 73.3%
- viability, T/C [35]: 98.7%
- viability, T/C [36]: 74.5%
